Source: patent publication US9938811B2, “Method of enhancing fracture complexity using far-field divert systems” (Baker Hughes, LLC, priority 2013, dated 2018)

Test: Dissolution in deionized water or HCl 15% (Example 1)
Format: physicochemical
Settings: 20 hours at 180° F., then 3 hours at room temperature
Protocol: Phthalic anhydride (obtained from a commercial supplier) and Sample A (8 g of each) were first mixed with 100 mL deionized water or HCl 15% and maintained for 20 hours at 180° F., and then cooled down to room temperature and kept for 3 hours.

SMILES: O=C1OC(=O)c2ccccc21 [Commercial Phthalic Anhydride, Phthalic anhydride]
- Dissolved (%) (8 g in 100 mL HCl 15%): 4%
- Dissolved (%) (8 g in 100 mL deionized water): 6%
